We go through seven compounds from patent US7060451B2, “Methods for screening GABA-modulatory compounds for specified pharmacological activities” (Neurogen Corporation, priority 1999, dated 2006).

Marks after values point to notes of the source that are not given here.

Data set [1] addresses α5β3γ2 GABAA subtype receptor (Homo sapiens, UniProt P18507+P31644). As to the kind of experiment: oocyte electrophysiology, two electrode voltage-clamp, potentiation of GABA current. It is filed as cell-based. The conditions noted are these: Xenopus oocytes, human subunits, GABA EC10; for Emax: read-out: oocyte electrophysiology maximum potentiation (%) α5β3γ2. The protocol:
(§1) Assays are carried out as described previously in White and Gurley, 1995 and White, et al., 1995. Xenopus laevis oocytes are enzymatically isolated and injected with non-polyadenylated cRNA for human derived α, β and γ GABAA subunits, respectively. In more preferred embodiments cRNA for the α1β2γ2, α2β3γ2, α3β3γ2, and α5β3γ2 subunit combinations are injected. Only one of these subunit combinations is injected per cell. For each subunit combination, sufficient message is injected to result in current amplitudes of >10 nA when 1 μM GABA is applied. Electrophysiological recordings are carried out using the two electrode voltage-clamp technique at a membrane holding potential of −70 mV.
(§2) Compounds are evaluated against a GABA concentration that evokes <10% (EC10) of the maximal evocable GABA current. Each oocyte is exposed to increasing concentrations of compound in order to evaluate a concentration/effect relationship.
(§3) Specificity of a compound for the Ro15-1788 site is determined following completion of the concentration/effect curve. After washing the oocyte sufficiently to remove previously applied compound, the oocyte is exposed to GABA and 1 μM Ro15-1788, followed by exposure to GABA, 1 μM Ro15-1788, and compound. Percent change due to addition of compound is calculated as described above. Any percent change observed in the presence of Ro15-1788 is subtracted from the percent changes in current amplitude observed in the absence of 1 μM Ro15-1788. These net values are used for the calculation of average activity and EC50 values.
(§4) To evaluate average activity and EC50 values, the concentration/effect data are averaged across cells and fit to the logistic equation. Average values are reported as mean ±standard error.

For data set [2], the system named is rats. As to the kind of experiment: elevated plus maze. In kind it is in vivo. The settings on record: rat, IV, statistically significant response (anxiolytic effect). The protocol:
The elevated plus maze model capitalizes on rats' innate fear of open, elevated places. The test apparatus is an elevated plus maze consisting of two open arms and two closed arms. A rat will naturally chose to spend more time on the closed arms of the maze than on the open arms but that if an efficacious anxiolytic compound is administered to the rat prior to the test the amount it of time the rat spends in the open arms is increased.
Test compound is administered IV in a 50% PEG (polyethylene glycol) vehicle 5 minutes prior to the test session. A range of compound doses is typically used and 8-10 rats are tested at each dose. The rat is placed in the center of the maze facing one of the open arms. The animal's locomotion is tracked over a five minute test session using photocells interfaced to a computer. The computer measures the number of entries into each arm and the time spent on each arm. An anxiolytic effect in the elevated plus maze model is defined by an increase in the percentage of time spent on the open arms in compound versus vehicle treated animals.

Data set [3] deals with rats. The data set can be described thus: Porsolt forced swim test. In kind it is in vivo. The settings on record: rat, administered IV, statistically significant response. From the text: The effects measured in this model have been correlated to antidepressant efficacy for drugs. The paradigm of this model is that an effective antidepressant compound will cause a rat to make greater attempts to escape a water-filled cylinder than a rat given vehicle only.
Animals used in this study were non-naive male Sprague Dawley Rats (SASCO, St. Louis) weighing between 280-350 grams. The test apparatus consists of 6 clear Plexiglas cylinders 40 cm high×19 cm wide. Cylinders are filled to 18 cm with 25° C. water. Each rat is placed in a cylinder for a 15 minute training session. Following either subchronic or acute dosing of either vehicle (0.5% methylcellulose) of compound, animals are brought back 24 hours later for a 5 minute test session. These test session is videotaped for later scoring.
Subchronic dosing consists of administering drug three times in the 24-hour period between training and testing. The drug is administered 24 hrs., 5 hrs., and 1 hr. prior to the test session. Acute dosing consists of administering the drug once, 1 hour prior to the test session. Scoring is done using a time-sampling computer program written in Visual Basic and run in DOS. […] These sampling score are then converted into percentages of the test session.

For data set [4], the system named is rats. The data set can be described thus: spontaneous locomotor activity. In kind it is in vivo. The settings on record: rat. As to the method: Spontaneous locomotor activity can be measured to determine sedative effects of compounds. Locomotor activity is measured in eight computerized Digiscan-16 Animal Activity Monitors (Omnitech Electronics, Columbus, Ohio) equipped with 48 infrared photocell emitters and detectors. Each box is constructed of Plexiglas sides and floor. Horizontal activity is detected by a set of horizontal sensors on the front to back walls and a second group of sensors on the side to side walls located 5 cm above the cage floor. Vertical activity is detected by a third set of sensors on the side to side walls located 13.5 cm above the cage floor. The rats are tested in the presence of white noise (62 dB) and red St light (60 watt).
Test compound is administered IV in a 50% PEG vehicle 5 minutes prior to the test session. A range of compound doses is typically used and 6 to 8 rats are tested at each dose. The animal's movement time, vertical activity, and total distance traveled are tracked over a 15 minute test session. A sedative, or hypnotic, effect in the spontaneous locomotor activity model is defined by a decrease in any two of these three measures relative to animals given vehicle alone.

Data set [5] addresses α1β2γ2 GABAA subtype receptor (Homo sapiens, UniProt P14867+P18507). The data set can be described thus: oocyte electrophysiology, two electrode voltage-clamp, potentiation of GABA current. It is filed as cell-based. The conditions noted are these: Xenopus oocytes, human subunits, GABA EC10; for Emax: read-out: oocyte electrophysiology maximum potentiation (%) α1β2γ2. As to the method: as §1, §2, §3, §4

For data set [6], the target named is α2β3γ2 GABAA subtype receptor (Homo sapiens, UniProt P18507+P47869). The data set is described as above. The conditions noted are these: Xenopus oocytes, human subunits, GABA EC10. In kind it is cell-based. As to the method: as §1, §2, §3, §4
Sequence of α2β3γ2 GABAA subtype receptor (P47869 29-451): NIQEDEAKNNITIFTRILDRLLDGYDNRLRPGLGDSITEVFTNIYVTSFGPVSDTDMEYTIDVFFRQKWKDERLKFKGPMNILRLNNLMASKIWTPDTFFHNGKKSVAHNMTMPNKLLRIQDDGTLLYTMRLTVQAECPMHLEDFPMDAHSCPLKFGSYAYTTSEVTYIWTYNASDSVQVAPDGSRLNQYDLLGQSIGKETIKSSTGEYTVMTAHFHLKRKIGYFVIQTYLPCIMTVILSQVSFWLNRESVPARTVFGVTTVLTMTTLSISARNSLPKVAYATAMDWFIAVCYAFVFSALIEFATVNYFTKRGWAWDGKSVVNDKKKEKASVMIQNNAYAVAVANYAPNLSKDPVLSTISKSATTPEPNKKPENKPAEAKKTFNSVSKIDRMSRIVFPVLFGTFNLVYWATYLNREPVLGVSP
Sequence of α2β3γ2 GABAA subtype receptor (P28472 26-473 partner): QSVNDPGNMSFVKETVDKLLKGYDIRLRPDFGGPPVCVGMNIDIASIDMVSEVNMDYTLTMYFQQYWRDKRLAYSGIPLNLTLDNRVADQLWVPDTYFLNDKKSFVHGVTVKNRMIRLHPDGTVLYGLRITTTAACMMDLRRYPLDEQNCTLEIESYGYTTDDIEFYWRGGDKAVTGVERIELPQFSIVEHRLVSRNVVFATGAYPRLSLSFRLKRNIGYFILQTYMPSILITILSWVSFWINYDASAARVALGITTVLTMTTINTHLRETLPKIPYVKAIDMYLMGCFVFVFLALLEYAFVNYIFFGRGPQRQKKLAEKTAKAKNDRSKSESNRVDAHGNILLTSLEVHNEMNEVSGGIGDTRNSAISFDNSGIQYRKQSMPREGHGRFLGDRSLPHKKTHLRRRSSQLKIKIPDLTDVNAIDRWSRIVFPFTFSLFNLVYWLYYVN
Sequence of α2β3γ2 GABAA subtype receptor (P18507 40-475): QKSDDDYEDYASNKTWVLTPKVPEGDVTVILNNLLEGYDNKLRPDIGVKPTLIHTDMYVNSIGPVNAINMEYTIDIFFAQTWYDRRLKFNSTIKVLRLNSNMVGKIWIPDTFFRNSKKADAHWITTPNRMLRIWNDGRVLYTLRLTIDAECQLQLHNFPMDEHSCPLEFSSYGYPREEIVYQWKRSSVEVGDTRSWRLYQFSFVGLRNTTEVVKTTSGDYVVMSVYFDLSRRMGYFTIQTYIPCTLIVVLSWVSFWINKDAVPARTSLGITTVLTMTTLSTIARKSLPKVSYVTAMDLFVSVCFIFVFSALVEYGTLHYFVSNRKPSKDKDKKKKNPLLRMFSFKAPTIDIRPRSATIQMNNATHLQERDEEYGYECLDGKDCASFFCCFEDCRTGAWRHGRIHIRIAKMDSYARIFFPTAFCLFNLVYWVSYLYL
In data set [7] the target is α3β3γ2 GABAA subtype receptor (Homo sapiens, UniProt P18507+P34903). The data set is described as above. It is filed as cell-based. The conditions noted are these: Xenopus oocytes, human subunits, GABA EC10. The protocol: as §1, §2, §3, §4
Sequence of α3β3γ2 GABAA subtype receptor (P34903 29-492): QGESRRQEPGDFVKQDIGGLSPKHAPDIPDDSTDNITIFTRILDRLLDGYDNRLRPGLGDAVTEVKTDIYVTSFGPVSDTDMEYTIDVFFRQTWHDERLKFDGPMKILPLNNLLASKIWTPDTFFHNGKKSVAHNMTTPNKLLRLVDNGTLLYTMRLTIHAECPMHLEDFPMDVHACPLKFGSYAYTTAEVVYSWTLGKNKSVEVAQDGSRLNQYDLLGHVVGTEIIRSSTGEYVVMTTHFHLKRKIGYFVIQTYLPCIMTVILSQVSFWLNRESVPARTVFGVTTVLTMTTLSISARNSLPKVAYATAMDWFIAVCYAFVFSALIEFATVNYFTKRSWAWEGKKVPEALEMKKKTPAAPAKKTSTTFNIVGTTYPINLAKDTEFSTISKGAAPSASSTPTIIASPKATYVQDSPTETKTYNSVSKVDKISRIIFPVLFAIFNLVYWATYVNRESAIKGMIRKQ
Sequence of α3β3γ2 GABAA subtype receptor (P28472 26-473 partner): as the sequence (P28472 26-473 partner) above
Sequence of α3β3γ2 GABAA subtype receptor (P18507 40-475): as the sequence (P18507 40-475) above
Data set [8] has as its system rats. The data set can be described thus: spatial water maze. It is filed as in vivo. The settings on record: rat.
The target of data set [9] is GABAA receptors (benzodiazepine site, Ro15-1788 binding sites), rat cortex. The data set can be described thus: Ro15-1788 competition binding assay, rat cortex membranes. The settings on record: displacement of 3H Ro15-1788, read-out: Ro15-1788 binding, K1. The protocol:
Rat cortex membranes are prepared by homogenizing one or two previously frozen rat cortexes in 30 ml of 25 mM Tris Buffer, pH 7.4. The homogenate is centrifuged for 10 minutes at 500× g. The supernatant is then transferred to a clean centrifuge tube and the pellet discarded. The supernatant is spun for 20 minutes at 48,000× g. The supernatant from this spin is discarded and the pellet is resuspended in 30 ml of 25 mM Tris Buffer, pH 7.4 and centrifuged for an additional 10 minutes at 48,000× g. The supernatant from the final spin is discarded and the membrane pellet is resuspended in 100 mL Tris buffer per gram of cortex used.
The cortex membrane preparation is used to perform either percent inhibition or competition binding assays. In order to determine percent inhibition 300 μl of resuspended membranes are mixed with 200 μl ^3H labeled Ro15-1788 (final concentration 2.5 nM) and incubated for 1 hour on ice in the presence of 2 μl test compound in DMSO (final concentration 4 μM). Membranes are harvested onto untreated filtermats. The filtermats are dried and the ^3H Ro15-1788 signal is counted in a scintillation counter. Nonspecific binding is determined by displacement of ^3H Ro15-1788 with 10 μM Diazepam (RBI) or any other compound known to bind tightly at the benzodiazepine site.
K1 values are calculated according to the Cheng-Prussof equation.

For data set [10], the system named is rats. The data set can be described thus: step-down passive avoidance. The conditions noted are these: rat, IV, cognitive enhancement. In kind it is in vivo. The text has this:
In step-down passive avoidance a rat is placed on a platform located in the center of an electrified grid floor that is contained within a large (45 cm×45 cm×50 cm) white translucent Plexiglas® enclosure. The natural inclination of the rat is to step off the platform and investigate its surroundings. […] Each time the animal steps off the platform it receives a mild foot shock of 2 mAmps×6 sec. Following each shock the animal is removed from the box, placed in its cage for a one minute inter-trial interval, and then returned to the platform. The latency to step down on each trial, the number of trials taken to reach criterion during training and the retention latency are collected.
Testing is conducted approximately 24 hrs. after training. Drug-free animals are placed on the platform in the box in which they will have been trained and the latency to step down onto the grid floor is recorded for one trial as a measure of memory retention.

Data set [11] deals with bicuculline-induced seizures in rats. The data set can be described thus: bicuculline seizure threshold test. In kind it is in vivo. The conditions noted are these: rat, compound infused 5 minutes before bicuculline. From the text: This test provides a measure of whether the test compound is proconvulsant by measuring whether the test compound produces any change in the dose of the seizure inducing drug, bicuculline, needed to elicit seizures in rats. Test compounds must show <25% decrease in seizure threshold or p>0.05 significance to be considered as drug candidates.
Adult male Sprague-Dawley rats (175-300 g) are weighed and placed in a rat restrainer. A Teflon® indwelling catheter is placed in one of the lateral tail veins and held in place with surgical tape. The catheter and a 3.0 cc syringe are connected by a length of PE-100 tubing fitted with Hamilton male and female adapter. Patency of catheter placement is tested by backflow of venous blood and ready infusion of less than 2 ml of saline solution. Animals are placed in a clear acrylic cage for behavioral observation.
The test compound is prepared in either 25% or 50% polyethylene glycol 400 (PEG) vehicle. A bicuculline (BIC) stock solution of 1.0 mg/ml BIC in 25% PEG/75% 1N HCl is also prepared. […]
Test compound is infused 5 minutes prior to the start of bicuculline infusion. […] The time elapsed from the start of bicuculline infusion to first myoclonic jerk (first head/neck twitch), the initiation of full myoclonus (writhing), and final forelimb extension is all recorded using a digital stopwatch. […]

Sequence of α1β2γ2 GABAA subtype receptor (P14867 28-456): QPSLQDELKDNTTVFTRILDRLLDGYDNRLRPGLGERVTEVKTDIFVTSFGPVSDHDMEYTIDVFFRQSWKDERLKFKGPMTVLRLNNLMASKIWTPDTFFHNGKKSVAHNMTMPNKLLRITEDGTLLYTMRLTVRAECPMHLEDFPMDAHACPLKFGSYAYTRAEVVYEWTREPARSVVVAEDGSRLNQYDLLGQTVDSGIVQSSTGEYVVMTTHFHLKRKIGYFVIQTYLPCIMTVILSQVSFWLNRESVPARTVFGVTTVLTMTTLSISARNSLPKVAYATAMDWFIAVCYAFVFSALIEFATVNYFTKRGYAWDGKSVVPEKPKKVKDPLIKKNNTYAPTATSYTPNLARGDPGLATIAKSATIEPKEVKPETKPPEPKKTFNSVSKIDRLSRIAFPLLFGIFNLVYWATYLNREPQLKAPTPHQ
Sequence of α1β2γ2 GABAA subtype receptor (P47870 25-512 partner limits assumed): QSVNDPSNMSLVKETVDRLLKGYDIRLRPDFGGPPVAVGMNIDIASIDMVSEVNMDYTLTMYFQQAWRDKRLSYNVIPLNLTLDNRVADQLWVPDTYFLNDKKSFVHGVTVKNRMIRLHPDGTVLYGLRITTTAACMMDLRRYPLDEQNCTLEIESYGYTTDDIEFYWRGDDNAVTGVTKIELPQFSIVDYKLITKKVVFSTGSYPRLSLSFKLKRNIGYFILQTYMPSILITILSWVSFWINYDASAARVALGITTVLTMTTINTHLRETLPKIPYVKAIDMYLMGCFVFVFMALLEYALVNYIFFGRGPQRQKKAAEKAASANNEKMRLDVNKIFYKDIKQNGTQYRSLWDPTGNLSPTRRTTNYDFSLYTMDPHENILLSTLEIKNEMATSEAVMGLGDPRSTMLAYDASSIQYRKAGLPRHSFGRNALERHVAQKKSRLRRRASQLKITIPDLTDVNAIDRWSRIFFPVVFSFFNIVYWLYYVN
Sequence of α1β2γ2 GABAA subtype receptor (P18507 40-475): as the sequence (P18507 40-475) above
Sequence of α5β3γ2 GABAA subtype receptor (P31644 32-462): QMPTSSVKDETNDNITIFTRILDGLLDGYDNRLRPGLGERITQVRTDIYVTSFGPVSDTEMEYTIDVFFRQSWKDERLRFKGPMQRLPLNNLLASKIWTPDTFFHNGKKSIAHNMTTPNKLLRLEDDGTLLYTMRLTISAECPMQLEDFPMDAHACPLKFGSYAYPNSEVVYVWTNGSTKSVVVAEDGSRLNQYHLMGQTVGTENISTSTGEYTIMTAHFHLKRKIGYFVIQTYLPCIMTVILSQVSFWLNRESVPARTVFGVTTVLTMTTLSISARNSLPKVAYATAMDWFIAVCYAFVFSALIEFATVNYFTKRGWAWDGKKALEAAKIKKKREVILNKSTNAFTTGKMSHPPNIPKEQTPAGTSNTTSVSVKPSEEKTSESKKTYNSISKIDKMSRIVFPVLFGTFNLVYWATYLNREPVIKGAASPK
Sequence of α5β3γ2 GABAA subtype receptor (P28472 26-473 partner): as the sequence (P28472 26-473 partner) above
Sequence of α5β3γ2 GABAA subtype receptor (P18507 40-475): as the sequence (P18507 40-475) above

Regarding `CCOc1ccc(NC(=O)c2c[nH]c3c2C(=O)CCC3)cc1` [compound 3], in data set [1], the “oocyte electrophysiology maximum potentiation (%) α5β3γ2” value was 38% and the Emax was -11%. Also, the “elevated plus maze, minimal efficacious dose” value (“elevated plus maze” below) in the data set with rats [2] is 0.125 mg/kg. In the data set with rats [3], the “Porsolt swim test, minimal efficacious dose” value (from here on “Porsolt swim test”) worked out at 20 mg/kg. In addition, the “spontaneous locomotor activity, minimal efficacious dose” value with rats [4] (in vivo, iv, 15 min) is given as 4 mg/kg.
Consider `CCOc1ccc(-n2c(=O)c3c[nH]c4ccccc4n-3c2=O)cc1` [compound 1], for which the “oocyte electrophysiology maximum potentiation (%) α1β2γ2” value in data set [5] turned out to be 12%. For the same compound, in data set [1], the EC50 worked out at 88 nM, the “oocyte electrophysiology maximum potentiation (%) α5β3γ2” value is reported as 15% and the Emax was -11%. The “elevated plus maze” value with rats [2] was 0.03 mg/kg. For the same compound, in the data set on rats [3], the “Porsolt swim test” value was 20 mg/kg.
`COc1ccc(F)c(-c2ncc3[nH]c4c(c3n2)CCCC4)c1` [compound 11]: the Emax in data set [5] is -11%; in data set [1] it was -22%. Further, the “oocyte electrophysiology maximum potentiation (%) α2β3γ2” value in [6] was 21%. Moreover, the “oocyte electrophysiology maximum potentiation (%) α3β3γ2” value in data set [7] turned out to be 36%. Besides, the “cognitive model (spatial water maze), minimal efficacious dose” value in the data set on rats [8] (PO) was “PO = 10.0^†† mg/kg”. Further, the Ki in data set [9] came to 33 nM.
On to `O=C(Nc1ccccc1)c1c[nH]c2c1C(=O)CCCC2` [compound 13], for which the figures for the Emax in [5] and in data set [1] were -17% and -20%, respectively. Besides, in data set [6], the “oocyte electrophysiology maximum potentiation (%) α2β3γ2” value is 9%. Besides, the “oocyte electrophysiology maximum potentiation (%) α3β3γ2” value in [7] is given as 14%. Further, the “cognitive model (spatial water maze), minimal efficacious dose” value with rats [8] (IV) is reported as 0.125^†† mg/kg. In addition, the Ki in [9] was 6.3 nM.
Regarding `CNCc1ccc(NC(=O)c2c[nH]c3c2C(=O)CCCC3)cc1` [compound 4], in [1], the “oocyte electrophysiology maximum potentiation (%) α5β3γ2” value worked out at 38% and the Emax is 0%. Besides, the “elevated plus maze” value in the data set on rats [2] is reported as 0.5 mg/kg. In the data set on rats [3], the “Porsolt swim test” value stood at 20 mg/kg.
As for `O=C1C2C=Nc3ccccc3C2=NN1c1ccccc1` (centres unmarked) [CGS 8216, reference compound], the “oocyte electrophysiology maximum potentiation (%) α1β2γ2” value in [5] was −26%. For the same compound, the “oocyte electrophysiology maximum potentiation (%) α5β3γ2” value in data set [1] is reported as −39%. In [6], the “oocyte electrophysiology maximum potentiation (%) α2β3γ2” value is on record as −10%. Further, the “oocyte electrophysiology maximum potentiation (%) α3β3γ2” value in data set [7] is on record as −8%. In the data set with rats [10], the “cognitive model (step-down passive avoidance), minimal efficacious dose” value worked out at 0.06 mg/kg. For the same compound, the “bicuculline seizure threshold, mean percent decrease in seizure threshold over the dose range studied” value in data set [11] came to 50%.
For the compound `CC(C)(C)OC(=O)c1ncn2c1C1CCCN1C(=O)c1c(Br)cccc1-2` (centres unmarked) [Ro16-6028, reference compound], in [5], the EC50 was determined as 3 nM and the “oocyte electrophysiology maximum potentiation (%) α1β2γ2” value was found to be 40%. In data set [1], the concentration for a half-maximal effect (EC50) was 3 nM and the “oocyte electrophysiology maximum potentiation (%) α5β3γ2” value stood at 64%. In [6], the EC50 was determined as 5 nM and the “oocyte electrophysiology maximum potentiation (%) α2β3γ2” value stood at 37%. In data set [7], the EC50 was 5 nM and the “oocyte electrophysiology maximum potentiation (%) α3β3γ2” value stood at 76%. The “Porsolt swim test” value in the data set with rats [3] worked out at 1 mg/kg. Moreover, the “spontaneous locomotor activity, minimal efficacious dose” value with rats [4] (IV, sedation as side effect (Tables V and IX)) stood at 0.06 mg/kg. Further, in data set [9], the Ki stood at 0.48 nM.
